US20250054582A1, “METHOD OF IDENTIFYING A SOLVENT FOR A MATRIKINE” (THE BOOTS COMPANY PLC, priority 2021, published 2025)
Peptide text beside a SMILES is read from it.

How the values were obtained:
[1] = HSPiP analysis: Hansen Solubility Sphere of the matrikine from solubility scores; type: physicochemical; set-up: δD / δP: unit not given here; details: for δD / δH / δP: Hansen Solubility Parameter of the peptide; for δD / δH / δP / R (Size of HSP Sphere): overall results summary; for δD value / δH value: in words, HSPiP fit of solubility scores; for radius: radius of the HSP sphere
Method: (§1) The HSP sphere of seven different matrikines was determined by using a range of reference solvents (solvents with known HSP spheres) to dissolve the matrikines. The reference solvents were then ranked based on their ability to dissolve the matrikines. A software package called Hansen Solubility Parameters in Practice (HSPiP) was then used to determine the HSPs of each of the matrikines.
The use of qualitative rankings of solubility phenomena makes it possible to define a spheroidal cluster in which the most compatible samples are contained.
The scores from 1 to 6 were entered into the HSPiP data form and then the software analyses the data to produce a Hansen diagram of the solubility sphere, alongside details of the solubility parameters and the goodness of the fit of the data to the sphere, in text format.

[2] = Qualitative solubility ranking of matrikines in reference solvents; type: physicochemical
Method: as §1
In general, a set of around 20 standard reference solvents was used to carry out preliminary investigations in solubility tests. Following this, additional/fine-tuning (FT) solvents were selected and used to are used to optimise the reliability and definition of the solubility parameters of the matrikines.
All samples were prepared under standard conditions, within an air-conditioned laboratory environment, at 20° C. and a standard pressure.
Usually, samples are prepared on the Formax High-throughput Formulation System, manufactured by Chemspeed. However due to the small sample size, the samples of this project were prepared manually using a single channel pipette for liquids and an analytical balance for solids.
Qualitative evaluation of the solubility of the matrikines within a range of different reference solvents was used. Samples were placed into six categories, according to the relative extent to which the matrikine dissolved in the solvent.
Between these two extremes sit the other four ranking-categories, whose typical descriptions can be found in table 1 below.

[3] = Franz cell skin explant penetration with 3D OrbiSIMS analysis; type: in vitro ADME, human
Method: For ex vivo analysis, full thickness human skin tissue was removed during cosmetic surgery from Caucasian female donors (aged 35-70). The explant was frozen immediately post-surgery, shipped and stored at −20° C. prior to use.
The tissue was then defrosted, cut and mounted, dermal side down, in a Franz-type static diffusion cell set-up (Franz, 1975), with an exposed surface area of 1.1 cm^2. Infinite doses of the cosmetic formulations were applied to the donor chamber, with the explant exposed to the formulations for 1 hour in a water bath set to 36.5° C. Sink conditions were maintained throughout the experiments.
After 1 hour, the Franz cell was dismantled, excess formulation was removed with a dry sponge and the skin explant was wiped with a sponge soaked in Teepol Solution (3% v/v). Next, the explant was dehydrated under vacuum at room temperature for 24 hours before 3D OrbiSIMS analysis […]
A 20 KeV Ar3000+ analysis beam with a diameter of 20 μm was used as the primary ion source. Samples were analysed at ambient temperature across a 400×400 μm area in positive polarity with sawtooth raster mode and a total crater size of 486×486 μm. […] Mass spectra were recorded at a resolution of 240,000 at m/z 200 in the mass range of 75 to 1,125 m/z. […]

[4] = blend Glycerol Carbonate:Dimethyl Formamide:1-Propanol 55:25:20%

Row | Compound | greatest contribution to the cohesive energy density [1] | δD [1] | δH [1] | δP [1] | δD value [1] | δH value [1] | R (Size of HSP Sphere) [1] [MPa^0.5] | radius [1] [units] | solubility over the reference solvents tested (in words) [2] | penetration into the skin tissues ([3]; formulation containing methyl gluceth-20 compared to glycerin only, 1 hour) | Pal-GHK peptide ion intensity in skin explant ([3]; formulation with glycerin+methyl gluceth-20 versus glycerin only, 1 hour in Franz cell, 3D OrbiSIMS) | dissolution (in words) ([2]; blend Propylene Carbonate:Propylene Glycol 65:35%) | dissolution (in words) ([2]; blend Propylene Glycol Monomethyl Ether:Propylene Carbonate 55:45%) | dissolution (in words) ([2]; blend Benzyl Alcohol:2-Propanol 80:20%) | dissolution (in words) [2, 4] | dissolution (in words) ([2]; solvent 2-PhenoxyEthanol) | dissolution (in words) ([2]; solvent N-Methyl Formamide)
1 | CCCCCCCCCCCCCCCC(=O)N[C@@H](CCC(=O)O)C(=O)N[C@@H](CCCCN)C(=O)NCC(=O)N[C@@H](CC(=O)O)C(=O)O [Pal-EKGD] (HELM PEPTIDE1{[CCCCCCCCCCCCCCCC(=O)[*:2]].E.K.G.D}$$$$V2.0) | Dispersion forces | 17.31 | 17.26 | 13.92 | moderate | moderate | 10.3 | 10.3 |  |  |  |  |  |  |  |  | 
2 | CCCCCCCCCCCCCCCC(=O)NCC(=O)N[C@@H](Cc1c[nH]cn1)C(=O)N[C@@H](CCCCN)C(=O)O [Pal-GHK, N-Palmitoyl-Gly-His-Lys] (HELM PEPTIDE1{[CCCCCCCCCCCCCCCC(=O)[*:2]].G.H.K}$$$$V2.0) | Dispersion forces | 17.83 | 11.22 | 6.57 | moderate | low | 3.5 | 3.5 | No samples showed complete dissolution | penetrated quicker | more peptide ion present |  |  |  |  |  | 
3 | CCCCCCCCCCCCCCCC(=O)NCC(=O)N1CCC[C@H]1C(=O)N[C@@H](CCCCN)C(=O)NCC(=O)O [Pal-GPKG] (HELM PEPTIDE1{[CCCCCCCCCCCCCCCC(=O)[*:2]].G.P.K.G}$$$$V2.0) | Dispersion forces | 17.82 | 17.73 | 10.55 | moderate | moderate | 8.3 | 8.3 |  |  |  | did not dissolve | did not dissolve |  |  |  | 
4 | CCCCCCCCCCCCCCCC(=O)NCC(=O)N[C@@H](CCC(N)=O)C(=O)N1CCC[C@H]1C(=O)N[C@@H](CCCNC(=N)N)C(=O)O [Pal-GQPR, N-palmitoyl-Gly-Gln-Pro-Arg] (HELM PEPTIDE1{[CCCCCCCCCCCCCCCC(=O)[*:2]].G.Q.P.R}$$$$V2.0) |  |  |  |  |  |  |  |  |  |  |  |  |  | did not dissolve | did not dissolve | most interaction with the product without complete dissolution | complete dissolution
5 | CCCCCCCCCCCCCCCC(=O)N[C@@H](CC(C)C)C(=O)N[C@@H](CO)C(=O)N[C@H](C(=O)N[C@@H](CC(=O)O)C(=O)O)C(C)C [Pal-LSVD] (HELM PEPTIDE1{[CCCCCCCCCCCCCCCC(=O)[*:2]].L.S.V.D}$$$$V2.0) | Dispersion forces | 18.84 | 14.82 | 12.04 | high | low | 6.8 | 6.8 | very limited solubility |  |  |  |  |  |  |  | 
6 | CCCCCCCCCCCCCCCC(=O)N[C@@H](CCC(N)=O)C(=O)N[C@H](C(=O)N[C@@H](C)C(=O)N[C@H](C(=O)O)C(C)C)[C@@H](C)O [Pal-QTAV] (HELM PEPTIDE1{[CCCCCCCCCCCCCCCC(=O)[*:2]].Q.T.A.V}$$$$V2.0) | Dispersion forces | 17.61 | 10.95 | 10.66 | moderate | low | 6 | 6 |  |  |  |  |  |  | didn't dissolve |  | 
